Here are results for 9 molecules from patent US5049559A, “Thieno-triazolo-diazepine derivatives useful as anti-ischemic agents” (priority 1989, dated 1991).

The subject of assay [1] is platelet aggregation induced by PAF. Briefly: Inhibition of platelet aggregation induced by PAF. The assay is classed as cell-based. As to conditions: Oryctolagus cuniculus, male New Zealand rabbits, Table I. On the procedure:
1) Inhibition of platelet aggregation induced by PAF
This experimentation was conducted according to the method of R. KINLOUGH. RATHBONE, J. P. CAZENAVE, M. PACKHAM and F. MUSTARD, Lab. Invest. 48, 98, 1980. In this test, New Zealand rabbits were used (male New Zealand rabbits of an average weight of 5 kg).
The determinations are made on a chrono-log Coultronics aggregometer, at […] coupled with a graphic recorder; the results of these determinations (in molecular concentration) are reported on the table I on the central column.

A further assay has as its target benzodiazepine receptors. As to the kind of experiment: Inhibition of the binding to benzodiazepine receptors. As to conditions: rat brains, 1 hour 30 minutes at 4° C., tracers 3H-RO-15-1788 and 3H-RO-5-4864, Table I, read-out: BDZ receptors. An excerpt: 2) Inhibition of the binding to benzodiazepine receptors
The interest of the previous experimentation depends on the results obtained in this experimentation: as a compound of the invention has a benzodiazepine like structure, it is important to check whether the specific benzodiazepine activity would not appear at the dose where platelet aggregation was inhibited.
Therefore, this experimentation has been conducted according to the method of MOHLER H. and RICHARD J. G. Agonist and antagonist benzodiazepine receptor interaction in vitro, Nature, vol. 294, 763-765, 1981.
This experimentation was conducted on rat brains incubated 1 hour 30 minutes at 4° C. using ^3 H-RO-15-1788 and ^3 H-RO-5-4864 (NEN) as tracers and […] and RO-5-4864 as reference antagonists.
The results in molecular concentration are reported in the table I, on the right hand column.

A short description of assay [2]: Global ischemia on gerbils. It is filed as in vivo. As to conditions: Meriones unguiculatus, 168 h, carotides clamped 10 minutes, hippocampes one week later, 3H-PK 11195, percentage of protection compared to control. On the procedure: 3) Global ischemia on gerbils For this test, males gerbils were anaesthetized with brietal at the doses of 35 mg/kg IP; thereafter, both carotides were clamped for 10 minutes, then the clamping was released. Treated animals received each 10 mg/kg of the compounds of one of the examples. One week later, the animals were killed and both hippocampes were taken, weighed and frozen at -80° C. After crushing with 1 ml of TRIS-HCl pH 7.4 for 30 seconds, aliquots of each 50 μl of this preparation were incubed in each 1 ml of TRIS-HCl buffer containing ^3 H-PK 11195 at 2 nM (90 Ci/mmole, NENE, Germany) for 1 hour at 25° C. For each preparation, 3 determinations were made. The density of omega 3 sites (marked by the specific ^3 H-PK 11195 marker) are expressed in f-moles of PK 11195/mg of fresh tissues and converted in percentage of protection compared to control.

One may read the inhibition in vivo as the relative decrease from the control value, in per cent. Higher therefore signals strong suppression.

With `Cc1nnc2n1-c1sc3c(c1C(c1ccccc1Cl)=NC2)CCN(C(=S)CSc1ccc(F)cc1)C3` [Example 26, 6-(2-chlorophenyl)-9-(4-fluorophenylthiomethyl-thiocarbonyl)-7,8,9, 10-tetrahydro-1-methyl-4H-pyrido [4',3':4,5] thieno [3,2-f] 1,2,4-triazolo[4,3-a] 1,4-diazepine], the IC50 in assay [1] is 6.56 nM; on benzodiazepine receptors, 610 nM. For the same molecule, testing at 10 mg/kg in assay [2] gave an inhibition in vivo of 26.5%.

Consider `Cc1nnc2n1-c1sc3c(c1C(c1ccccc1Cl)=NC2)CCN(C(=O)CSc1cccc(Cl)c1Cl)C3` [Example 27, 6-(2-chlorophenyl)-9-(2,3-dichlorophenylthiomethyl-carbonyl)-7,8,9, 10-tetrahydro-1-methyl-4H-pyrido [4',3':4,5] thieno [3,2-f] 1,2,4-triazolo[4,3-a] 1,4-diazepine], for which the values for the IC50 (in assay [1]; at benzodiazepine receptors) were 8.45 nM and 48000 nM, respectively. The inhibition in vivo at 10 mg/kg in assay [2] was 33.3%.

On to `Cc1nnc2n1-c1sc3c(c1C(c1ccccc1Cl)=NC2)CCN(C(=S)CSc1cccc(Cl)c1Cl)C3` [Example 28, 6-(2-chlorophenyl)-9-(2,3-dichlorophenylthiomethyl-thiocarbonyl)-7,8,9, 10-tetrahydro-1-methyl-4H-pyrido [4',3':4,5] thieno [3,2-f] 1,2,4-triazolo[4,3-a] 1,4-diazepine], for which the results for the IC50 (in assay [1]; at benzodiazepine receptors) were 9.06 nM and 4300 nM, respectively. In addition, the inhibition in vivo at 10 mg/kg in assay [2] was determined as 35.3%.

For the molecule `Cc1nnc2n1-c1sc3c(c1C(c1ccccc1Cl)=NC2)CCN(C(=O)CSc1ccc(Oc2ccccc2)cc1)C3` [Example 29, 6-(2-chlorophenyl)-9-(4-phenoxyphenylthiomethyl-carbonyl) 7,8,9, 10-tetrahydro-1-methyl-4H-pyrido [4',3':4,5] thieno [3,2-f] 1,2,4-triazolo[4,3-a] 1,4-diazepine], the IC50 in assay [1] amounted to 9.05 nM; on benzodiazepine receptors it was 1230 nM. In addition, the inhibition in vivo at 10 mg/kg in assay [2] turned out to be 51.6%.

Regarding `Cc1nnc2n1-c1sc3c(c1C(c1ccccc1Cl)=NC2)CCN(C(=S)CSc1ccc(Oc2ccccc2)cc1)C3` [Example 30, 6-(2-chlorophenyl)-9-(4-phenoxyphenylthiomethyl-thiocarbonyl)-7,8,9, 10-tetrahydro-1-methyl-4H-pyrido [4',3':4,5] thieno [3,2-f] 1,2,4-triazolo[4,3-a] 1,4-diazepine], the IC50 in assay [1] was 104 nM; on benzodiazepine receptors, 360 nM. This molecule returned an inhibition in vivo at 10 mg/kg in assay [2] of 16.1%.

On to `Cc1nnc2n1-c1sc3c(c1C(c1ccccc1Cl)=NC2)CCN(C(=O)CSc1ccco1)C3` [Example 31, 6-(2-chlorophenyl)-9-(2-furyl-thiomethyl-carbonyl)-7,8,9, 10-tetrahydro-1-methyl-4H-pyrido [4',3':4,5] thieno [3,2-f] 1,2,4-triazolo[4,3-a] 1,4-diazepine], for which the IC50 in assay [1] is 7.1 nM; on benzodiazepine receptors, 230 nM. For the same molecule, testing at 10 mg/kg in assay [2] gave an inhibition in vivo of 36.2%.

For the molecule `Cc1nnc2n1-c1sc3c(c1C(c1ccccc1Cl)=NC2)CCN(C(=S)CSc1ccco1)C3` [Example 32, 6-(2-chlorophenyl)-9-(2-furyl-thiomethyl-thiocarbonyl)-7,8,9, 10-tetrahydro-1-methyl-4H-pyrido [4',3':4,5] thieno [3,2-f] 1,2,4-triazolo[4,3-a] 1,4-diazepine], the IC50 in assay [1] is 8.75 nM; on benzodiazepine receptors, 1300 nM. This molecule returned an inhibition in vivo at 10 mg/kg in assay [2] of 30.3%.

In the case of `Cc1nnc2n1-c1sc3c(c1C(c1ccccc1Cl)=NC2)CCN(C(=O)CSc1cccs1)C3` [Example 33, 6-(2-chlorophenyl)-9-(2-thienyl-thiomethyl-carbonyl)-7,8,9, 10-tetrahydro-1-methyl-4H-pyrido [4',3':4,5] thieno [3,2-f] 1,2,4-triazolo[4,3-a] 1,4-diazepine], the IC50 in assay [1] stood at 41.2 nM; on benzodiazepine receptors it was 5700 nM. This molecule also had an inhibition in vivo at 10 mg/kg in assay [2] of 24.8%.

With `Cc1nnc2n1-c1sc3c(c1C(c1ccccc1Cl)=NC2)CCN(C(=S)CSc1cccs1)C3` [Example 34, 6-(2-chlorophenyl)-9-(2-thienyl-thiomethyl-thiocarbonyl)-7,8,9, 10-tetrahydro-1-methyl-4H-pyrido [4',3':4,5] thieno [3,2-f] 1,2,4-triazolo[4,3-a] 1,4-diazepine], the values for the IC50 (in assay [1]; on benzodiazepine receptors) were 128 nM and 720 nM, respectively. At 10 mg/kg the inhibition in vivo in assay [2] was 34.7%.
